# What was measured:
# Format in all cases: in vivo
# [1] = test system: Amaranthus retroflexus (AMARE); experiment: Post-emergence herbicidal efficacy at 320 g/ha, greenhouse pot test; details: visual rating vs untreated control after about 3 weeks
# Description: (§1) Seeds of mono- and dicotyledonous weed plants were placed in plastic pots in sandy loam soil (doubly sown with in each case one species of mono- or dicotyledonous weed plants per pot), covered with soil and cultivated in a greenhouse under controlled growth conditions. 2 to 3 weeks after sowing, the test plants were treated at the one-leaf stage. The compounds of the invention, formulated in the form of wettable powders (WP) or as emulsion concentrates (EC), were applied onto the green parts of the plants as aqueous suspension or emulsion with addition of 0.5% additive at a water application rate of 600 liters per hectare (converted). After the test plants had been kept in the greenhouse under optimum growth conditions for about 3 weeks, the activity of the preparations was rated visually in comparison to untreated controls. For example, 100% activity=the plants have died, 0% activity=like control plants. Tables […] 11 below show the effects of selected compounds of the general formula (I) according to Table 1 on various harmful plants and an application rate corresponding to 320 g/ha, which were obtained by the experimental procedure mentioned above.
# Veronica persica (VERPE) [2] = experiment: as above; details: 320 g/ha, visual rating vs untreated control after about 3 weeks
# Description: as §1
# Bassia scoparia (KCHSC) = experiment: Pre-emergence herbicide efficacy at 320 g/ha, greenhouse pot test; details: dosage 1280 g/ha in Table C6, visual scoring after about 3 weeks
# Excerpt: (§2) Seeds of mono- and dicotyledonous weed plants were placed in plastic pots in sandy loam soil (doubly sown with in each case one species of mono- or dicotyledonous weed plants per pot) and covered with soil. The compounds of the invention, formulated in the form of wettable powders (WP) or as emulsion concentrates (EC), were then applied onto the surface of the covering soil as aqueous suspension or emulsion with addition of 0.5% additive at a water application rate of 600 liters per hectare (converted). After the treatment, the pots were placed in a greenhouse and kept under good growth conditions for the test plants. After about 3 weeks, the effect of the preparations was scored visually in comparison with untreated controls as percentages. For example, 100% activity=the plants have died, 0% activity=like control plants. Tables C1 to C12 below show the effects of selected compounds of the general formula (I) according to Table 1 on various harmful plants and an application rate corresponding to 320 g/ha, which were obtained by the experimental procedure mentioned above.
# [3] = test system: Abutilon theophrasti (ABUTH); experiment: as above; details: visual scoring vs untreated control after about 3 weeks
# Excerpt: as §2
# [4] = test system: Amaranthus retroflexus (AMARE); experiment: as above; details: visual scoring vs untreated control after about 3 weeks
# Excerpt: as §2
# [5] = test system: Matricaria inodora (MATIN); experiment: as above; details: visual scoring vs untreated control after about 3 weeks
# Excerpt: as §2
# Stellaria media (STEME) [6] = experiment: as above; details: visual scoring vs untreated control after about 3 weeks
# Excerpt: as §2
# Poa annua (POAAN) [7] = experiment: Post-emergence herbicidal efficacy at 320 g/ha, greenhouse pot test; details: visual rating vs untreated control after about 3 weeks
# Description: as §1
# Stellaria media (STEME) [8] = experiment: as above; details: visual rating vs untreated control after about 3 weeks
# Description: as §1
# Poa annua (POAAN) [9] = experiment: Pre-emergence herbicide efficacy at 320 g/ha, greenhouse pot test; details: visual scoring vs untreated control after about 3 weeks
# Excerpt: as §2
# [10] = test system: Echinochloa crus-galli (ECHCG); experiment: as above; details: visual scoring vs untreated control after about 3 weeks
# Excerpt: as §2
# Setaria viridis (SETVI) = experiment: as above; details: visual scoring vs untreated control after about 3 weeks
# Excerpt: as §2
# Veronica persica (VERPE) [11] = experiment: as above; details: visual scoring vs untreated control after about 3 weeks
# Excerpt: as §2
Structure (SMILES),Post-emergence efficacy against Amaranthus retroflexus (AMARE) [1] [%],Post-emergence efficacy against Veronica persica (VERPE) (Veronica persica (VERPE) [2]) [%],Pre-emergence efficacy against Bassia scoparia (KCHSC) (Bassia scoparia (KCHSC)) [%],Pre-emergence efficacy against Abutilon theophrasti (ABUTH) [3] [%],Pre-emergence efficacy against Amaranthus retroflexus (AMARE) [4] [%],Pre-emergence efficacy against Matricaria inodora (MATIN) [5] [%],Pre-emergence efficacy against Stellaria media (STEME) (Stellaria media (STEME) [6]) [%],Post-emergence efficacy against Poa annua (POAAN) (Poa annua (POAAN) [7]) [%],Post-emergence action against Stellaria media (STEME) (Stellaria media (STEME) [8]) [%],Pre-emergence efficacy against Poa annua (POAAN) (Poa annua (POAAN) [9]) [%],Pre-emergence efficacy against Echinochloa crus-galli (ECHCG) [10] [%],Pre-emergence efficacy against Setaria viridis (SETVI) (Setaria viridis (SETVI)) [%],Pre-emergence efficacy against Veronica persica (VERPE) (Veronica persica (VERPE) [11]) [%]
Cc1cc(C)c(-c2cc(C(F)F)no2)c(Oc2ncc(Br)cc2C#N)n1 [Example I-291],90,90,90,,,,,,,,,,
Cc1cc(C)c(-c2cc(C3(C)CC3)no2)c(Oc2ncc(Cl)cn2)n1 [Example I-297],,90,,90,90,100,100,,,,,,
Cc1ccc(-c2cc(C(F)F)on2)c(Oc2ncc(F)cn2)n1 [Example I-13],90,,,,,,,,,,,,
Cc1cc(C)c(-c2cc(CC3CC3)no2)c(Oc2ncc(Cl)cc2F)n1 [Example I-202],,,,,90,,100,100,90,,,,
Cc1cc(C)c(-c2cc(C3CC3)no2)c(Oc2ncc(Cl)cc2F)n1 [Example I-180],,90,,,100,100,100,,100,100,,,
Cc1cc(C)c(-c2cc(CC3CC3)no2)c(Oc2ncc(F)cn2)n1 [Example I-200],90,90,,90,100,90,100,,90,90,90,,
Cc1cc(C)c(-c2cc(C(F)F)no2)c(Oc2ncc(C#N)cn2)n1 [Example I-46],100,100,90,90,90,100,90,90,100,,,,
Cc1cc(C)c(-c2cc(C3CC3)no2)c(Oc2ncc(Br)cn2)n1 [Example I-296],90,100,100,100,100,100,100,90,100,100,90,100,90
Cc1cc(C)c(-c2cc(C(F)F)no2)c(Oc2ncc(F)cc2C#N)n1 [Example I-289],100,90,90,,,,90,90,90,,,,
Cc1cc(C)c(-n2cccn2)c(Oc2ncc(F)cn2)n1 [Example I-244],,,90,,,,,,,,,,90
